{
  "source": "patent US20090325202A1",
  "about": "“Methods for Developing and Assessing Therapeutic Agents” (priority 2006, published 2009)",
  "key": {"[1]": {"test_system": "ERK1/2", "test": "HuCCT-1 xenograft tumor FNAB Western blot, ERK1/2 activity", "format": "in vivo, human", "experimental": "(§1) Four to 6-week-old female athymic (nu+/nu+) mice were purchased from Harlan (Harlan Laboratories, Washington, D.C.). The research protocol was approved by the Johns Hopkins University Animal Care Committee and animals were maintained in accordance with the guidelines of the American Association of Laboratory Animal Care. […] Mice were monitored daily for signs of toxicity and were weighed three times per week. Tumor size was evaluated three times per week by caliper measurements using the following formula: tumor volume=[length×width^2]/2. Tumor growth inhibition was calculated by tumor volume of treated mice divided by tumor volume of control mice. Experiments were terminated on day 14.\nFine needle aspirates were obtained with a 25G needle and 10 ml syringe, passing the needle through the tumor 10 times with application of 1-2 ml suction The aspirated material was expressed onto clear glass slides and smeared. All smears were allowed to air dry and then stained with Diff-Quik stain (Baxter Healthcare, Miami, Fla.). Five to ten AD/DQ-stained cytological smears were prepared from each tumor sample. The cellular composition of each aspirate was assessed by cytopathologists.\n(§2) Total cell lysates were obtained from either cells cultured in vitro or from tumor FNAB samples. […] Immunoreactive proteins were visualized by enhanced chemiluminescence (Amersham International, United Kingdom). Total and phospho-ERK1/2 proteins were quantified by sandwich [LISA kits (BioSource International, Camarillo, Calif., USA) as described in the manufacturer's protocols. The reaction was read at 450 nm in an ELISA plate reader.\nNext, whether FNAB samples obtained from tumor tissue at the early stage of therapy can be used to predict tumor response was examined. […] Expression and phosphorylation levels of ERK 1/2 were analyzed on Western blot by using extracts prepared from AD/DQ-stained FNAB samples."}, "[2]": {"test_system": "HuCCT-1 tumors", "test": "HuCCT-1 xenograft tumor growth", "format": "in vivo, athymic (nu+/nu+) mice", "conditions": "single agents: gefitinib 150 mg/Kg i.p. days 1-5 and 8-12, CI-1040 150 mg/Kg twice a day oral days 1-14", "experimental": "as §1\nTo explore the feasibility of implementing this method in in vivo studies, mouse xenografts were next employed to test whether FNAB material obtained from tumor tissue can be utilized to monitor and predict therapy response in vivo. For this purpose HuCCT-1 cholangiocarcinoma cells were used to create a xenograft mouse model of human cholangiocarcinoma. […] Tumor volumes were measured and compared with tumors from animals that received drug vehicle alone."}, "[3]": {"test_system": "ERK1/2", "test": "HuCCT-1 xenograft tumor FNAB phospho-/total ERK1/2 ELISA", "format": "in vivo, human", "experimental": "as §1, §2\nWestern blot analysis of protein samples is a conventional method for phosphoprotein analysis, but is limited in throughput, quantitative precision and requires large sample amounts. ELISA assays offer alternatives to Western blot with higher throughput and increased sensitivity. […] For this purpose the tumor FNAB samples, which have been analyzed on Western blot above (FIG. 16A), were used to assess the expression and phosphorylation of ERK1/2 proteins by the total and phospho-specific ERK1/2 ELISA assays, respectively.\nThe amounts of phosphorylated ERK1/2 were normalized for the total contents of these proteins in each sample group and therapy-mediated changes in their phosphorylation status were quantified."}, "[4]": {"test_system": "ERK1/2", "test": "Phospho-/total ERK1/2 ELISA in EGF-stimulated T-47D cell smears", "format": "cell-based, human", "conditions": "T-47D cells, AG1478 0.5 uM, PD98059 20 uM", "experimental": "T47D cells were maintained in Dulbecco's modified Eagle's medium (Life Technologies, Inc.) supplemented with 10% fetal calf serum and antibiotics (Life Technologies, Inc.). Prior to EGF (Sigma) stimulation, cells were starved for 24 h in serum-free medium.\nTotal cell lysates were obtained from either cells cultured in vitro or from tumor FNAB samples. Protein extracts were resolved by 4-15% SDS-PAGE and probed with Rabbit anti-EGFR, anti-phospbo-EGFR, anti-ERK1 and anti-phospho-ERK antibodies obtained from New England Biolabs (Beverly, Mass.). Immunoreactive proteins were visualized by enhanced chemiluminescence (Amersham International, United Kingdom). Total and phospho-ERK1/2 proteins were quantified by sandwich [LISA kits (BioSource International, Camarillo, Calif., USA) as described in the manufacturer's protocols. The reaction was read at 450 nm in an ELISA plate reader.\nWestern blot analysis of protein samples is a conventional method for phosphoprotein analysis. However, Western blot analysis is limited in throughput and quantitative precision, and also requires large sample amounts. […] Therefore, it was tested if quantitative ELISA assays can be applied to cytologic samples to increase the assay sensitivity to measure the expression levels and activation status of specific signaling pathways. […]"}, "[5]": {"test_system": "ERK1/2", "test": "Ex vivo FNAB drug sensitivity assay, ERK1/2 phosphorylation by Western blot", "format": "cell-based, human", "experimental": "Tumor cells were collected by FNAB from the xenograft animals before the start of treatment using a sterile 25G short needle. Tumor samples were immediately transferred into 10 ml sterile prewarmed complete RPMI-1640 culture medium containing 10% FBS, penicillin (200 μg/ml), and streptomycin (200 μg/ml). Cells were incubated with 0.04% trypan blue (Sigma) dissolved in PBS (9.1 mM Na2HPO4, 1.7 mM NaH2PO4, and 150 mM NaCl, pH 7.4). The viable (membrane-intact) and dead cells were then counted using Neubauer hemocytometer and the total viable cell count was used to calculate final working volumes. Approximately 25,000 viable tumor cells were seeded into each well of a 6-well polypropylene microplate. Cells were treated in duplicates with vehicle (control), erlotinib (5 μM) or temsirolimus (1 μM) in a humidified 5% CO2 incubator at 37° C. for 6 hours. No fibroblast and endothelial cell growth was observed. Following treatment, non-adherent and adherent cells (only a few, collected by scraping) were pooled together and centrifuged at 500×g for 5 min at 4° C. After washing with PBS, cells were lysed in 100 μL of ice-cold lysis buffer (50 mM Tris-HCl, 0.25M NaCl, 0.1% (v/v) Triton X-100, 1 mM EDTA, 50 mM NaF, and 0.1 mM Na3VO4, pH 7.4) containing protease and phosphatase inhibitors (Roche Molecular Biochemicals) and analyzed by Western blot.\nProtein concentrations obtained from FNAB samples were quantified before each experiment. Protein extracts (15 μg) were electrophoresed on a 10% (w/v) SDS-polyacrylamide gel. After electrotransfer to Immobilon-P membranes (Millipore), membranes were blocked at room temperature using SuperBlock (Pierce) for one hour. The primary antibodies were diluted at 1:1000 in 1:10 dilution of SuperBlock solution and the membranes were incubated with primary antibodies overnight at 4° C. The antibodies tested were phospho-ERK1/2 (Cell signal #9101), phospho-S6 Ribosomal Protein (Cell Signaling Technology, Beverly, Mass.) and total ERK1/2 (Cell Signaling Technology, Beverly, Mass.) and total S6 Ribosomal Protein (Cell Signaling Technology, Beverly, Mass.). The next day, the membranes were washed and incubated for 1 h at room temperature with horseradish peroxidase (HRP)-conjugated secondary antibodies, rabbit IgG-HRP (Santa Cruz Biotechnology), or mouse IgG-HRP (Santa Cruz Biotechnology) at a final dilution of 1:3000. Antibody binding was visualized using enhanced chemiluminescence (SuperSignal West Pico, Pierce) and autoradiography.\nTo test if tumor cells obtained by FNAB can be used in the ex vivo assays to predict tumor response in vivo, 25,000 viable cancer cells, as determined by trypan blue dye exclusion, were treated with erlotinib or temsirolimus for six hours, after which signal pathway inhibition was analyzed by Western blot. Under these cell culture conditions no fibroblast and endothelial cell growth was detected (data not shown).\nTo determine whether standard clinical FNAB specimens provide adequately cellular tumor samples to perform ex vivo prediction assays, adenocarcinoma cells were collected by ultrasound or computer tomography-guided FNAB technique from pancreatic cancer patients during routine diagnostic procedures. Tumor cells were isolated by centrifugation from the needle rinse suspensions and treated with vehicle (control), erlotinib, or temsirolimus ex vivo for six hours."}, "[6]": {"test_system": "primary human pancreatic cancer xenograft tumors", "test": "Tumor growth (RTG) in xenograft mouse models of primary human pancreatic cancer", "format": "in vivo, athymic (nu+/nu+) mice", "source_text": "Four-week-old female athymic (nu+/nu+) mice were purchased from Harlan (Harlan Laboratories, Washington, D.C.). The research protocol was approved by the Johns Hopkins University Animal Care and Use Committee and animals were maintained in accordance to guidelines of the American Association of Laboratory Animal Care. Briefly, frozen pancreatic xenografts in first passage in mice, after being obtained from surgical specimens of patients undergoing pancreatic resection for adenocarcinoma at the Johns Hopkins Hospital were re-implanted subcutaneously in groups of 5 mice for each patient, with 2 small pieces per mouse (F2 generation). Tumors were allowed to grow to a size of 1.5 cm at which point they were harvested, divided into small ˜3×3×3 mm pieces, and transplanted to another 18-22 mice, with two tumors per mouse. Tumors from this second mouse-to-mouse passage were allowed to grow until reaching −200 mm^3, at which time mice were randomized in the following three treatment groups, with 6 mice in each group: control (vehicle), erlotinib (50 mg/kg/day i.p.), and temsirolimus (20 mg/kg days 1-5 i.p.). Mice were monitored daily for signs of toxicity and were weighed three times per week. Tumor size was evaluated three times per week by caliper measurements using the following formula: tumor volume=[length×width^2]/2 as previously reported (19). Relative tumor growth (RTG) was calculated by tumor growth of treated mice divided by tumor growth of control mice (T/C)×100. Experiments were terminated on day 28. Tumor response was defined as sensitive, when RTG was less than 50% on day 28."}},
  "note": "“And” between values parts separate entries of the source, which are not always exact repeats. Equal entries are not always repeated. “Also recorded” adds a separate entry of the source.",
  "data": [
    {"molecule": "O=C(NOCC1CC1)c1ccc(F)c(F)c1Nc1ccc(I)cc1Cl", "note": "[CI-1040]", "values": [
      {"measurement": "ERK1/2 activity (phospho-ERK1/2 immunoblot)", "setting": "[1]; HuCCT-1 tumor FNAB samples of treated mice, gefitinib, CI-1040 alone or combined", "result": "only a slight inhibition in ERK1/2 activity"},
      {"measurement": "ERK1/2 activity, serial FNAB sampling", "setting": "[1]; combination: as early as 6 h after first administration, sustained for two weeks, single agents: 6 h or 5 d", "result": "neither of these agents alone caused inhibition"},
      {"measurement": "decrease in tumor volume", "setting": "[2]", "result": 11, "unit": "%"},
      {"measurement": "phosphorylation levels of ERK1/2 by phospho-ERK1/2 ELISA (raw data)", "setting": "[3]; HuCCT-1 tumor FNAB samples of treated animals", "result": "neither gefitinib nor CI-1040 treatment alone caused any significant change"},
      {"measurement": "decrease of ERK1/2 phosphorylation (normalized for total ERK1/2)", "setting": "[3]; HuCCT-1 tumor FNAB, CI-1040 alone", "result": 19, "unit": "%"}
    ]},
    {"molecule": "COc1cccc(-c2cc(=O)c3ccccc3o2)c1N", "note": "[PD98059]", "values": [
      {"measurement": "inhibition of EGF-induced ERK1/2 phosphorylation (phospho-ELISA normalized for total ERK1/2)", "setting": "[4]", "result": "50% and 60%"}
    ]},
    {"molecule": "C#Cc1cccc(Nc2ncnc3cc(OCCOC)c(OCCOC)cc23)c1", "note": "[erlotinib]", "values": [
      {"measurement": "ERK1/2 activation ex vivo", "setting": "[5]; all resistant tumors of the xenograft panel, erlotinib 5 μM, 6 hours", "result": "failed to inhibit ERK1/2 activation"},
      {"measurement": "ERK1/2 phosphorylation ex vivo", "setting": "[5]; cancer cells from pancreatic cancer patient 1, six hours", "result": "dramatically blocked ERK1/2 phosphorylation"},
      {"measurement": "phosphorylation of ERK1/2 ex vivo", "setting": "[5]; cells from resistant tumor A265, erlotinib 5 μM, 6 hours", "result": "failed to inhibit ERK1/2 phosphorylation"},
      {"measurement": "phosphorylation of ERK1/2 ex vivo", "setting": "[5]; cells from tumor A198, erlotinib 5 μM, 6 hours", "result": "dramatic inhibition; also recorded: did show inhibition of ERK1/2; also recorded: inhibited ERK1/2 activation"},
      {"measurement": "ERK1/2 activity ex vivo", "setting": "[5]; tumor cells of pancreatic cancer patient 2 and 3, six hours", "result": "did not effectively block ERK1/2 activity"},
      {"measurement": "RTG", "setting": "[6]; remaining seven tumors (all but A198), erlotinib 50 mg/kg/day i.p., day 28", "result": "greater than 50%"},
      {"measurement": "tumor response", "setting": "[6]; tumor A198", "result": "sensitive (Tumor response was defined as sensitive, when RTG was less than 50% on day 28)"},
      {"measurement": "tumor response", "setting": "[6]; tumor A265", "result": "resistant (greater than 50% RTG and were defined as resistant)"}
    ]}
  ]
}
